In patent publication US8236819B2, “Dihydro-[1H]-quinolin-2-one derivatives as RXR agonists for the treatment of dyslipidemia, hypercholesterolemia and diabetes” (Janssen Pharmaceutica N.V., priority 2005, dated 2012):
Several values for one entry are separate records, joined by “and”; a condition that tells them apart may be missing. Equal entries are not always repeated.

Assays:
[1] = tested on: ABCA1 mRNA in THP-1 cells; experiment: ABCA1 bDNA assay (ABCA1 mRNA induction); assay type: cell-based, human; conditions: for EC50 / Emax: Homo sapiens; for EC50: THP-1, THP-1 cells, ABCA1 mRNA induction; for Emax / ABCA1 (% max MX-6054) @3 μM / ABCA1 (% max MX-6054) @0.3 μM: THP-1 cells, relative to max of MX-6054; for Emax: concentration not given
Protocol: THP-1 cells, a human monocytic cell line, were obtained from ATCC and maintained in RPMI (Gibco) supplemented with 10% fetal bovine serum (Gibco), 2 mM L-glutamine and 1% antibiotic-antimycotic in 5% CO2 at 37° C. For ABCA1 mRNA induction assays, the cells were pelleted and resuspended in RPMI supplemented with 0.5% charcoal treated serum (Hyclone), 2 mM glutamine and 1% antibiotic-antimycotic. The cells were plated at a density of 40,000 cells/90 µl and incubated as above for at least 4 hours before the initiation of treatments. Compounds were prepared as 10 mM stocks in DMSO. For treatments, the compounds were diluted in medium and 10 µl of 10× stocks were added to the cells at a final concentration 0.1% DMSO. The cells were incubated for the desired amount of time (usually 18-24 hrs) and then lyzed with 50 µl of Quantigene HV bDNA lysis buffer which also contained the ABCA1 bDNA probes (probe sequences shown below): […]

[2] = target: T1, RXR (Homo sapiens, UniProt P19793); experiment: RXR co-transfection assay (GAL4 fusion, luciferase reporter, HEK293 cells); assay type: cell-based; conditions: for RXR co-transfection (% of 2,4-thiazolidinedione, 5-[[3-(1-ethyl-1,2,3,4-tetrahydro-4,4,6-trimethyl-2-oxo-7-quinolinyl)-4-(trifluoro-methoxy)phenyl]methylene]-, (5Z)-): relative to the reference thiazolidinedione
T1 construct: expressed in transfected cells; host or cells: HEK293
T1 sequence (P19793 227-458 limits assumed): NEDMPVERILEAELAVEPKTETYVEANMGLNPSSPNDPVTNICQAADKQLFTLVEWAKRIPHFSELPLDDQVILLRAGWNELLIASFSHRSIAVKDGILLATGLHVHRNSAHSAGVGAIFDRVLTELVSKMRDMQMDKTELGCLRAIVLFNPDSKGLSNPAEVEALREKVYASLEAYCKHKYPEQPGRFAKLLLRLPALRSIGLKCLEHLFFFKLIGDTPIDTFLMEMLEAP
Protocol: The nucleic acid sequence from 676-1464 bp (accession number X52773) encoding the ligand binding domains was subcloned into the pM vector (BD Biosciences Clontech, Palo Alto, Calif.) and were fused with the DNA binding domain of yeast GAL4. HEK293 cells were cultured in DMEM/F12 medium supplemented with 10% FBS and 1% I-glutamine (growth medium). Cells were seeded at a density of 5-10×10^6 cells in 50 ml of growth medium and left overnight. The medium was removed and the cells were washed with 15 ml of OptiMEM serum free medium (Invitrogen Corp). The cells were transfected using OptiMEM serum free medium and DMRIE transfection reagent (Invitrogen Corp). Approximately 10-30 ng of DNA for the different receptors and 5-10 ng of the luciferase reporter (1:1 ratio for RAR and 4:1 ratio for RXR of receptor DNA:reporter DNA) were gently mixed with 51 µl of DMRIE reagent in a total volume of 17 ml of OptiMEM medium. Eighteen hours after transfection, the cells were washed once with growth medium and then incubated for 6 hrs in 30 ml of growth medium. The cells were then trypsinized, and reseeded at a density of 50,000 per well in 96 well plates and left overnight. The medium was replaced with 90 µl of medium containing DMEM/F12 supplemented with 0.5% charcoal-treated FBS (HyClone; Logan, Utah) and 1% glutamine. Compounds or vehicle were added in 10 µl of 10× concentration of compound or vehicle (0.1% dimethyl sulfoxide). The cells were treated for 16-18 hours, lysed and assayed for luciferase activity using the Steady Glo luciferase assay kit (Promega, Madison, Wis.).

Row | Structure (SMILES) | EC50 [1] | Emax [1] | EC50 [2] | RXR co-transfection (% of 2,4-thiazolidinedione, 5-[[3-(1-ethyl-1,2,3,4-tetrahydro-4,4,6-trimethyl-2-oxo-7-quinolinyl)-4-(trifluoro-methoxy)phenyl]methylene]-, (5Z)-) [2] | melting point | ABCA1 (% max MX-6054) @3 μM [1] | ABCA1 (% max MX-6054) @0.3 μM [1]
1 | COc1ccc([C@@H]2C[C@H]2C(=O)O)cc1-c1cc2c(cc1C)C(C)(C)CC(=O)N2C(C)C (racemic) [Compound 44, (□)-2-[3-(1-Isopropyl-4,4,6-trimethyl-2-oxo-1,2,3,4-tetrahydro-quinolin-7-yl)-4-methoxy-phenyl]-cyclopropanecarboxylic acid] | 1520 nM | 29% | 251 nM and 164 nM |  |  |  | 
2 | Cc1cc2c(cc1-c1cc(CCC(=O)O)ccc1OC(F)(F)F)N(C(C)C)C(=O)CC2(C)C [Compound 28, 3-[3-(1-Isopropyl-4,4,6-trimethyl-2-oxo-1,2,3,4-tetrahydro-quinolin-7-yl)-4-trifluoromethoxy-phenyl]-propionic acid] | 1 nM | 59% | 3.4 nM | (80%) |  |  | 
3 | Cc1cc2c(cc1-c1cc(CCC(=O)O)ccc1OCC(F)(F)F)N(C(C)C)C(=O)CC2(C)C [Compound 31, 3-[3-(1-Isopropyl-4,4,6-trimethyl-2-oxo-1,2,3,4-tetrahydro-quinolin-7-yl)-4-(2,2,2-trifluoro-ethoxy)-phenyl]-propionic acid] | 369 nM | 45% | 59.6 nM and 12.6 nM and 37.2 nM |  |  |  | 
4 | CCN1C(=O)CC(C)(C)c2cc(C)c(-c3cc(/C=C/C(=O)O)ccc3OCC(F)(F)F)cc21 [Compound 1, 3-[3-(1-Ethyl-4,4,6-trimethyl-2-oxo-1,2,3,4-tetrahydro-quinolin-7-yl)-4-(2,2,2-trifluoro-ethoxy)-phenyl]-acrylic acid] |  | 60% | 57.2 nM and 72.3 nM and 72.4 nM |  | 237 to 241 °C |  | 
5 | CCN1C(=O)CC(C)(C)c2cc(C)c(-c3cc(C(C)CC(=O)O)ccc3OC(F)(F)F)cc21 (stereo not shown) [Compound 30, 3-[3-(1-Ethyl-4,4,6-trimethyl-2-oxo-1,2,3,4-tetrahydro-quinolin-7-yl)-4-trifluoromethoxy-phenyl]-butyric acid] | 347 nM | 160% | 46.3 nM and 29.1 nM |  |  |  | 
6 | Cc1cc2c(cc1-c1cc([C@@H]3C[C@H]3C(=O)O)ccc1OC(F)(F)F)N(C(C)C)C(=O)CC2(C)C (racemic) [Compound 43, (□)-2-[3-(1-Isopropyl-4,4,6-trimethyl-2-oxo-1,2,3,4-tetrahydro-quinolin-7-yl)-4-trifluoromethoxy-phenyl]-cyclopropanecarboxylic acid] | > 1000 nM |  | 2.9 nM and 7.1 nM |  |  | (56% @3 μM) | 
7 | CCN1C(=O)CC(C)(C)c2cc(C)c(-c3cc(CCC(=O)O)ccc3OC(F)(F)F)cc21 [Compound 26, 3-[3-(1-Ethyl-4,4,6-trimethyl-2-oxo-1,2,3,4-tetrahydro-quinolin-7-yl)-4-trifluoromethoxy-phenyl]-propionic acid] | 47 nM | 56.8% | 7.1 nM and 7.3 nM |  |  |  | 
8 | Cc1cc2c(cc1-c1cc(/C=C/C(=O)O)ccc1OC(F)(F)F)N(C)C(=O)CC2(C)C [Compound 3, 3-[3-(1,4,4,6-Tetramethyl-2-oxo-1,2,3,4-tetrahydro-quinolin-7-yl)-4-trifluoromethoxy-phenyl]-acrylic acid] | 200 nM |  | 12.8 nM and 35.8 nM |  |  | (56% @3 μM) | 
9 | Cc1cc2c(cc1-c1cc([C@@H]3C[C@H]3C(=O)O)ccc1OC(F)(F)F)N(C)C(=O)CC2(C)C (racemic) [Compound 42, (□)-2-[3-(1,4,4,6-Tetramethyl-2-oxo-1,2,3,4-tetrahydro-quinolin-7-yl)-4-trifluoromethoxy-phenyl]-cyclopropanecarboxylic acid] | > 1400 nM |  | 144 nM | (108%) |  | (38% @3 μM) | 
10 | COc1ccc(/C=C/C(=O)O)cc1-c1cc2c(cc1C)C(C)(C)CC(=O)N2C(C)C [Compound 12, 3-[3-(1-isopropyl-4,4,6-trimethyl-2-oxo-1,2,3,4-tetrahydro-quinolin-7-yl)-4-methoxy-phenyl]-acrylic acid] | 510 nM | 59% | 71.2 nM and 62.7 nM and 36.7 nM | (85%) |  |  | 
11 | CCN1C(=O)CC(C)(C)c2cc(C)c(-c3cc(/C=C\C(=O)O)ccc3OC(F)(F)F)cc21 [Compound 58, 3-[3-(1-Ethyl-4,4,6-trimethyl-2-oxo-1,2,3,4-tetrahydro-quinolin-7-yl)-4-trifluoromethoxy-phenyl]-acrylic acid] | 886 nM | 75% | ~50.9 nM and 27.2 nM |  |  |  | 
12 | CCN1C(=O)CC(C)(C)c2cc(C)c(-c3cc(/C=C/C(=O)O)ccc3OC(F)(F)F)cc21 [Compound 2, 3-[3-(1-Ethyl-4,4,6-trimethyl-2-oxo-1,2,3,4-tetrahydro-quinolin-7-yl)-4-trifluoromethoxy-phenyl]-acrylic acid] | ~3.6 nM | 81% | 1 nM and 2.5 nM |  |  |  | 
13 | CCN1C(=O)CC(C)(C)c2cc(C)c(-c3cc(/C=C(\C)C(=O)O)ccc3OC(F)(F)F)cc21 [Compound 9, 3-[3-(1-Ethyl-4,4,6-trimethyl-2-oxo-1,2,3,4-tetrahydro-quinolin-7-yl)-4-trifluoromethoxy-phenyl]-2-methyl-acrylic acid] | 100 nM |  | 31.7 nM and 24.2 nM |  |  |  | (39.9% @0.3 μM)
14 | Cc1cc2c(cc1-c1cc(/C=C/C(=O)O)ccc1OC(F)(F)F)N(C(C)C)C(=O)CC2(C)C [Compound 4, 3-[3-(1-Isopropyl-4,4,6-trimethyl-2-oxo-1,2,3,4-tetrahydro-quinolin-7-yl)-4-trifluoromethoxy-phenyl]-acrylic acid] | 10 nM |  | 16.3 nM | (97%) |  |  | (70.3% @0.3 μM)
15 | Cc1cc2c(cc1-c1cc(/C=C/C(=O)O)ccc1OCC(F)(F)F)N(C(C)C)C(=O)CC2(C)C [Compound 11, 3-[3-(1-Isopropyl-4,4,6-trimethyl-2-oxo-1,2,3,4-tetrahydro-quinolin-7-yl)-4-(2,2,2-trifluoro-ethoxy)-phenyl]-acrylic acid] | 44 nM |  | 23.1 nM | (64%) |  |  | 
